Experiments:
Type in all cases: in vivo
[1] = tested on: barnyardgrass (Echinochloa crus-galli); assay: Test B flooded paddy test; conditions: Flood, 0 to 100 scale where 0 is no effect and 100 is complete control, 13 to 15 d
Procedure, shortened: (§1)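 Percent control, visually estimated after 13–15 d in the greenhouse on a 0–100 basis, compares treated pots with untreated ones; compound was put into paddy water 3 cm above the soil when plants had two leaves.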

[2] = tested on: sedge, umbrella (small-flower umbrella sedge, Cyperus difformis); assay: Test B flooded paddy test; conditions: Flood, 0 to 100 scale where 0 is no effect and 100 is complete control, 13 to 15 d
Procedure, shortened: as §1

[3] = tested on: rice (Oryra sativa); assay: Test B flooded paddy test; conditions: Flood, 0 to 100 scale where 0 is no effect and 100 is complete control, 13 to 15 d
Procedure, shortened: as §1

[4] = tested on: ducksalad (Heteranthera limosa); assay: Test B flooded paddy test; conditions: Flood, 0 to 100 scale where 0 is no effect and 100 is complete control, 13 to 15 d
Procedure, shortened: as §1

[5] = tested on: blackgrass (Alopecurus myosuroides); assay: Test A postemergence; conditions: postemergence
Procedure, shortened: (§2)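 Treatment is preemergence as a directed soil spray after planting, or postemergence at the one- to two-leaf stage, with test chemical in a non-phytotoxic solvent mixture plus surfactant. Plants stay in the greenhouse about 10 d before visual injury scoring on a 0 to 100 scale versus untreated controls.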

[6] = tested on: barnyardgrass (Echinochloa crus-galli); assay: Test A postemergence; conditions: postemergence
Procedure, shortened: as §2

[7] = tested on: wheat (Triticum aestivum); assay: Test A postemergence; conditions: postemergence
Procedure, shortened: as §2

[8] = tested on: ryegrass, Italian (Italian ryegrass, Lolium multiflorum); assay: Test A postemergence; conditions: postemergence
Procedure, shortened: as §2

[9] = tested on: Kochia (Kochia scoparia); assay: Test A postemergence; conditions: postemergence
Procedure, shortened: as §2

[10] = tested on: pigweed (Amaranthus retroflexus); assay: Test A postemergence; conditions: postemergence
Procedure, shortened: as §2

[11] = tested on: Galium (catchweed bedstraw, Galium aparine); assay: Test A postemergence; conditions: postemergence
Procedure, shortened: as §2

[12] = tested on: ragweed (common ragweed, Ambrosia elatior); assay: Test A postemergence; conditions: postemergence
Procedure, shortened: as §2

[13] = tested on: giant foxtail (Setaria faberii); assay: Test A postemergence; conditions: postemergence
Procedure, shortened: as §2

[14] = tested on: corn (Zea mays); assay: Test A postemergence; conditions: postemergence
Procedure, shortened: as §2

[15] = tested on: barnyardgrass (Echinochloa crus-galli); assay: Test A preemergence
Procedure, shortened: as §2

[16] = tested on: ryegrass, Italian (Italian ryegrass, Lolium multiflorum); assay: Test A preemergence
Procedure, shortened: as §2

[17] = tested on: Kochia (Kochia scoparia); assay: Test A preemergence
Procedure, shortened: as §2

[18] = tested on: pigweed (Amaranthus retroflexus); assay: Test A preemergence
[19] = tested on: ragweed (common ragweed, Ambrosia elatior); assay: Test A preemergence
Procedure, shortened: as §2

[20] = tested on: giant foxtail (Setaria faberii); assay: Test A preemergence
Procedure, shortened: as §2

[21] = 125 g ai/ha, visual rating after approx. 10 d, 0 to 100 scale (0 no effect, 100 complete control)
[22] = 500 g ai/ha, visual injury, 0 to 100 scale (0 no effect, 100 complete control), approx. 10 d
[23] = 125 g ai/ha, Preemergence, visual injury after approximately 10 d, 0 to 100 scale where 0 is no effect and 100 is complete control
[24] = 500 g ai/ha, preemergence, 0 to 100 scale, 0 = no effect, 100 = complete control
[25] = 125 g ai/ha, visual injury rating on 0 to 100 scale (0 no effect, 100 complete control), approx. 10 d
[26] = 500 g ai/ha, 0 to 100 scale, 0 no effect, 100 complete control
[27] = 125 g ai/ha, preemergence, 0 to 100 scale (0 no effect, 100 complete control)
[28] = Preemergence, 500 g ai/ha, visual injury approx. 10 d

Structure (SMILES): CC(C)Oc1cccc(C2CN(C)C(=O)C2C(=O)Nc2ccccc2C(F)(F)F)c1 (stereo not drawn) [Compound 652]
- Plant response rating, Barnyardgrass ([1]; 250 g ai/ha): 40
- Plant response rating, Sedge, Umbrella ([2]; 250 g ai/ha): 0
- Plant response rating, Rice ([3]; 250 g ai/ha): 0
- Plant response rating, Ducksalad ([4]; 250 g ai/ha): 65
- Plant response rating, Blackgrass [5, 21]: 60
- Plant response rating, Blackgrass [5, 22]: 70
- Plant response rating, Barnyardgrass [6, 21]: 90
- Plant response rating, Barnyardgrass [6, 22]: 90
- Plant response rating, Wheat [7, 21]: 0
- Plant response rating, Wheat [7, 22]: 40
- Plant response rating, Ryegrass, Italian [8, 21]: 50
- Plant response rating, Ryegrass, Italian [8, 22]: 70
- Plant response rating, Kochia [9, 21]: 0
- Plant response rating, Kochia [9, 22]: 0
- Plant response rating, Pigweed [10, 21]: 0
- Plant response rating, Pigweed [10, 22]: 20
- Plant response rating, Galium [11, 21]: 30
- Plant response rating, Galium [11, 22]: 50
- Plant response rating, Ragweed [12, 21]: 0
- Plant response rating, Ragweed [12, 22]: 0
- Plant response rating, Foxtail, Giant [13, 21]: 80
- Plant response rating, Foxtail, Giant [13, 22]: 90
- Plant response rating, Corn [14, 21]: 30
- Plant response rating, Corn [14, 22]: 60
- Plant response rating, Barnyardgrass [15, 23]: 90
- Plant response rating, Barnyardgrass [15, 24]: 90
- Plant response rating, Ryegrass, Italian [16, 23]: 60
- Plant response rating, Ryegrass, Italian [16, 24]: 60
- Plant response rating, Kochia [17, 23]: 0
- Plant response rating, Kochia [17, 24]: 30
- Plant response rating, Pigweed [18, 23]: 0
- Plant response rating, Pigweed [18, 24]: 30
- Plant response rating, Ragweed [19, 23]: 0
- Plant response rating, Ragweed [19, 24]: 0
- Plant response rating, Foxtail, Giant [20, 23]: 100
- Plant response rating, Foxtail, Giant [20, 24]: 100

Structure (SMILES): CN1CC(c2ccc(Cl)cc2)C(C(=O)Nc2ccccc2F)C1=O (stereo not drawn) [Compound 433]
- Plant response rating, Barnyardgrass ([1]; 250 g ai/ha): 70
- Plant response rating, Sedge, Umbrella ([2]; 250 g ai/ha): 0
- Plant response rating, Rice ([3]; 250 g ai/ha): 0
- Plant response rating, Ducksalad ([4]; 250 g ai/ha): 98
- Blackgrass plant response rating [5, 25]: 30
- Plant response rating, Blackgrass [5, 26]: 40
- Barnyardgrass plant response rating [6, 25]: 90
- Plant response rating, Barnyardgrass [6, 26]: 90
- Wheat plant response rating [7, 25]: 30
- Plant response rating, Wheat [7, 26]: 60
- Ryegrass, Italian plant response rating [8, 25]: 30
- Plant response rating, Ryegrass, Italian [8, 26]: 60
- Kochia plant response rating [9, 25]: 40
- Plant response rating, Kochia [9, 26]: 50
- Pigweed plant response rating [10, 25]: 20
- Plant response rating, Pigweed [10, 26]: 20
- Galium plant response rating [11, 25]: 50
- Plant response rating, Galium [11, 26]: 50
- Ragweed plant response rating [12, 25]: 0
- Plant response rating, Ragweed [12, 26]: 50
- Foxtail, Giant plant response rating [13, 25]: 80
- Plant response rating, Foxtail, Giant [13, 26]: 80
- Corn plant response rating [14, 25]: 0
- Plant response rating, Corn [14, 26]: 30
- Plant response rating, Barnyardgrass [15, 27]: 90
- Barnyardgrass plant response rating (0 to 100 scale, 0 is no effect, 100 is complete control) [15, 28]: 90
- Plant response rating, Ryegrass, Italian [16, 27]: 20
- Ryegrass, Italian plant response rating (0 to 100 scale, 0 is no effect, 100 is complete control) [16, 28]: 60
- Plant response rating, Kochia [17, 27]: 70
- Kochia plant response rating (0 to 100 scale, 0 is no effect, 100 is complete control) [17, 28]: 80
- Plant response rating, Pigweed [18, 27]: 20
- Pigweed plant response rating (0 to 100 scale, 0 is no effect, 100 is complete control) [18, 28]: 70
- Plant response rating, Ragweed [19, 27]: 70
- Ragweed plant response rating (0 to 100 scale, 0 is no effect, 100 is complete control) [19, 28]: 60
- Plant response rating, Foxtail, Giant [20, 27]: 90
- Foxtail, Giant plant response rating (0 to 100 scale, 0 is no effect, 100 is complete control) [20, 28]: 90

Structure (SMILES): COc1cccc(NC(=O)C2C(=O)NCC2c2cccc(C(F)(F)F)c2)c1F (racemic) [Compound 674]
- Plant response rating, Barnyardgrass ([1]; 500 g ai/ha): 60
- Plant response rating, Sedge, Umbrella ([2]; 500 g ai/ha): 0
- Plant response rating, Rice ([3]; 500 g ai/ha): 20
- Plant response rating, Ducksalad ([4]; 500 g ai/ha): 65
- Plant response rating, Blackgrass [5, 21]: 0
- Plant response rating, Blackgrass [5, 22]: 0
- Plant response rating, Barnyardgrass [6, 21]: 30
- Plant response rating, Barnyardgrass [6, 22]: 70
- Plant response rating, Wheat [7, 21]: 0
- Plant response rating, Wheat [7, 22]: 0
- Plant response rating, Ryegrass, Italian [8, 21]: 0
- Plant response rating, Ryegrass, Italian [8, 22]: 0
- Plant response rating, Kochia [9, 21]: 0
- Plant response rating, Kochia [9, 22]: 0
- Plant response rating, Pigweed [10, 21]: 0
- Plant response rating, Pigweed [10, 22]: 0
- Plant response rating, Galium [11, 21]: 0
- Plant response rating, Galium [11, 22]: 0
- Plant response rating, Ragweed [12, 21]: 0
- Plant response rating, Ragweed [12, 22]: 0
- Plant response rating, Foxtail, Giant [13, 21]: 30
- Plant response rating, Foxtail, Giant [13, 22]: 80
- Plant response rating, Corn [14, 21]: 0
- Plant response rating, Corn [14, 22]: 0
- Plant response rating, Barnyardgrass [15, 23]: 60
- Plant response rating, Barnyardgrass [15, 24]: 80
- Plant response rating, Ryegrass, Italian [16, 23]: 0
- Plant response rating, Ryegrass, Italian [16, 24]: 0
- Plant response rating, Kochia [17, 23]: 0
- Plant response rating, Kochia [17, 24]: 30
- Plant response rating, Pigweed [18, 23]: 0
- Plant response rating, Pigweed [18, 24]: 0
- Plant response rating, Ragweed [19, 23]: 0
- Plant response rating, Ragweed [19, 24]: 0
- Plant response rating, Foxtail, Giant [20, 23]: 70
- Plant response rating, Foxtail, Giant [20, 24]: 90

Source: patent publication US12077503B2, “Substituted cyclic amides and their use as herbicides” (FMC CORPORATION, priority 2015, dated 2024)
